Experiment in all cases: KinomeScan kinase panel, single concentration 10 µM
Assay type in all cases: binding

In experiment [1] the target is T1, KinomeScan kinase panel (Homo sapiens, UniProt Q16566).
T1 construct: purchased DiscoveRx (KinomeScan)
T1 sequence (Q16566 1-473): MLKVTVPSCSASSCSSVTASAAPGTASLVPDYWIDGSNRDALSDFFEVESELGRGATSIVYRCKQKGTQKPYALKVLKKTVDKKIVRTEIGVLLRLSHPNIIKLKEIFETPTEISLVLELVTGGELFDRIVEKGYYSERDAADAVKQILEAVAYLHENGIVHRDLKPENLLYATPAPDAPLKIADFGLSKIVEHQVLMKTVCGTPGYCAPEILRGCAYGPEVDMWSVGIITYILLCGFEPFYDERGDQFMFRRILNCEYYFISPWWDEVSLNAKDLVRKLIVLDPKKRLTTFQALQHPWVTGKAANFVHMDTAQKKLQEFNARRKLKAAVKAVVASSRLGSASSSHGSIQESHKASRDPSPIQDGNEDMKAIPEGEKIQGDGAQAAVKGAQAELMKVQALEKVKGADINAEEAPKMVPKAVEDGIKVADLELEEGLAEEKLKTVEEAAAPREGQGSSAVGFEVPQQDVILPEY
Conditions: CAMK4, 10 µM; read-out: score (%).

In experiment [2] the target is T2, KinomeScan kinase panel (Homo sapiens, UniProt P04049).
T2 construct: purchased DiscoveRx (KinomeScan)
T2 sequence (P04049 whole entry): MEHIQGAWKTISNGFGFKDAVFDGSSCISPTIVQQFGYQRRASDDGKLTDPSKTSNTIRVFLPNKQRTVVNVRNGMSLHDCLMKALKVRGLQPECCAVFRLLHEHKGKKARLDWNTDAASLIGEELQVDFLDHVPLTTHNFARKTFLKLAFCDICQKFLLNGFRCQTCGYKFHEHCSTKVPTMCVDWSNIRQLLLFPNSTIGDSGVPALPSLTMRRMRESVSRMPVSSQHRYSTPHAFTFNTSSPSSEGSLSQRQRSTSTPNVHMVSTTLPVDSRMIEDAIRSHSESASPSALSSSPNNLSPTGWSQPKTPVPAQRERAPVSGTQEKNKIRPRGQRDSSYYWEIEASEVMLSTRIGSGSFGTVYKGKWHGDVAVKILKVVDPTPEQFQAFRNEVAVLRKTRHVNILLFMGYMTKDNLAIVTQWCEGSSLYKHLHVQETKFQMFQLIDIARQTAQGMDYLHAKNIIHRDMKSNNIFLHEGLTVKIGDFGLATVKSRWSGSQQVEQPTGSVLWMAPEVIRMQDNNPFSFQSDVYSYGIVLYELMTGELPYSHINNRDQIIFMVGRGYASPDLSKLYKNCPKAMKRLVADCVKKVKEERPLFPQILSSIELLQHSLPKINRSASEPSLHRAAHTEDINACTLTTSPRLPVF
Particulars: read-out: score (%).

Experiment [3] deals with T3, KinomeScan kinase panel (Homo sapiens, UniProt Q04912).
T3 construct: purchased DiscoveRx (KinomeScan)
T3 sequence (Q04912 25-1400): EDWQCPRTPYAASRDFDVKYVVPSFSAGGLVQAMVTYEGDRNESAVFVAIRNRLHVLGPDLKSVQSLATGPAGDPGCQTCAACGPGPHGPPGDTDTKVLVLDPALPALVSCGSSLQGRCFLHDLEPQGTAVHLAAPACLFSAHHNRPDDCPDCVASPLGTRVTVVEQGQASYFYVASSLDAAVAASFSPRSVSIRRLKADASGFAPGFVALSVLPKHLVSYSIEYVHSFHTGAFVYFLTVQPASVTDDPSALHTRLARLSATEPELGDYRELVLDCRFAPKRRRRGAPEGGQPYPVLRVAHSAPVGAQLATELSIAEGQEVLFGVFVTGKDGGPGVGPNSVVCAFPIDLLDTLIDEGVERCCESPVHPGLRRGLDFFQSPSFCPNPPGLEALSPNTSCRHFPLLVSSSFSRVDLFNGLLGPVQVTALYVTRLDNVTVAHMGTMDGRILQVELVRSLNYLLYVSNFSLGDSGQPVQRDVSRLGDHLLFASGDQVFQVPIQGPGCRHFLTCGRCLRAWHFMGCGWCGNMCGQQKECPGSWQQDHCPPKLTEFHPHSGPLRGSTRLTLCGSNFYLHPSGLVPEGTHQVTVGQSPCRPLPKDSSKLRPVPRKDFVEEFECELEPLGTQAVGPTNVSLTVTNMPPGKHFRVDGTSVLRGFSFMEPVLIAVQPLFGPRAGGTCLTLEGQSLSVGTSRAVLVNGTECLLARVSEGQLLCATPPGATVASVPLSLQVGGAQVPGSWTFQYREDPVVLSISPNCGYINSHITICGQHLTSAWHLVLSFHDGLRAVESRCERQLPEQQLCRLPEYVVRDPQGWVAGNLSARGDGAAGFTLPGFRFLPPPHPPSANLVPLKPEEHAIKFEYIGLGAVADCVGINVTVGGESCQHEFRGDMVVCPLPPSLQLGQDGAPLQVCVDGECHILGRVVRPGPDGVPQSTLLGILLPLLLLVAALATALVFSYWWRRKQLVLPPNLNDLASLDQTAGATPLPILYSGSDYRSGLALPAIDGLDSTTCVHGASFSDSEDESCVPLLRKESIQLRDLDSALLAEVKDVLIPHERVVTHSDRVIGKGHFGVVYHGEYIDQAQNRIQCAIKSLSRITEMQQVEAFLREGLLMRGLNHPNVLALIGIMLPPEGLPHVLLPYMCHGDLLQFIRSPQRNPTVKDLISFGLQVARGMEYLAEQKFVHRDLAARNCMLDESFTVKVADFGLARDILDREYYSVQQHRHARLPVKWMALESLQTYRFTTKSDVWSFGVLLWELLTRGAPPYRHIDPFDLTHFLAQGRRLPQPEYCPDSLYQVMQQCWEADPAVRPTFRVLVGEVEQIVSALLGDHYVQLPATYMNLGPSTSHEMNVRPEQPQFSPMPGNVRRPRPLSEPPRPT
Conditions: MST1R, 10 µM; read-out: score (%).

Experiment [4] addresses T4, KinomeScan kinase panel (Homo sapiens, UniProt Q9HBH9).
T4 construct: purchased DiscoveRx (KinomeScan)
Conditions: MKNK2, 10 µM; read-out: score (%).

Experiment [5] deals with T5, KinomeScan kinase panel (Homo sapiens, UniProt Q15303).
T5 construct: purchased DiscoveRx (KinomeScan)
T5 sequence (Q15303 26-1308): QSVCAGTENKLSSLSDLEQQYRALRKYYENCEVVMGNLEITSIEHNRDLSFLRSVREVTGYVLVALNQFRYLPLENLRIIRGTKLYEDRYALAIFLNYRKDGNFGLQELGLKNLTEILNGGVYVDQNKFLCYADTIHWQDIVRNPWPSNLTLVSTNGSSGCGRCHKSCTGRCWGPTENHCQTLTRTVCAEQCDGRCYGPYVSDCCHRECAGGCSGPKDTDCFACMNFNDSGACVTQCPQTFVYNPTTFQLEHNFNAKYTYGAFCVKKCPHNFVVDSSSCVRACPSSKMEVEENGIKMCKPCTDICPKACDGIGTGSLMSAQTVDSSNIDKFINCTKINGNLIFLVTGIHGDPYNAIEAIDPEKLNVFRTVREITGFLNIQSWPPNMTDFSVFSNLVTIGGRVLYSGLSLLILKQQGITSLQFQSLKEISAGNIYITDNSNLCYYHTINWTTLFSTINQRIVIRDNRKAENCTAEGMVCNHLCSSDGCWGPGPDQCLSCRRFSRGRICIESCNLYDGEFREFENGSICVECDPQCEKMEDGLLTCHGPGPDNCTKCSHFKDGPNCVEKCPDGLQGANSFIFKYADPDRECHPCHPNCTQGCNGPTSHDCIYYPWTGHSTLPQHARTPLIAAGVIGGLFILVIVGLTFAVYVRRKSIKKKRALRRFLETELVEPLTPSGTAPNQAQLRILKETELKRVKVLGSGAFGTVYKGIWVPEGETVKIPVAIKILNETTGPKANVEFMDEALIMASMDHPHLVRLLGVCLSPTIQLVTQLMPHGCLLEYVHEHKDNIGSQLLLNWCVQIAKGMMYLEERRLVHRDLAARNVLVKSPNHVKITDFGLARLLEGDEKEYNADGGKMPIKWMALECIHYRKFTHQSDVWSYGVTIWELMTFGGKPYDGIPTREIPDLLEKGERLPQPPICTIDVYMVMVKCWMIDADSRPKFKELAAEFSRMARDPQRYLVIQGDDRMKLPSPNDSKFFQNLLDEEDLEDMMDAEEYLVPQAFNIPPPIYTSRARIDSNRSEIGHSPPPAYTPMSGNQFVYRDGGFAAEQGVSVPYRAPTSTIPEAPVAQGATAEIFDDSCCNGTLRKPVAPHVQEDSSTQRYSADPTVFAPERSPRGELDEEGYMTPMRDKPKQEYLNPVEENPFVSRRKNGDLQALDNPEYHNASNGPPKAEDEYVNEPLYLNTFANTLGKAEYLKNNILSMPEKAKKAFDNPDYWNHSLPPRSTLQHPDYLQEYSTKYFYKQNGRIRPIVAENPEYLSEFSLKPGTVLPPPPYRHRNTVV
Particulars: ERBB4, 10 µM; read-out: score (%).

The target in experiment [6] is T6, KinomeScan kinase panel (Homo sapiens, UniProt P22694).
T6 construct: purchased DiscoveRx (KinomeScan)
Particulars: PKAC-beta, 10 µM; read-out: score (%).

Experiment [7] deals with T7, KinomeScan kinase panel (Homo sapiens, UniProt P46734).
T7 construct: purchased DiscoveRx (KinomeScan)
T7 sequence (P46734 1-347): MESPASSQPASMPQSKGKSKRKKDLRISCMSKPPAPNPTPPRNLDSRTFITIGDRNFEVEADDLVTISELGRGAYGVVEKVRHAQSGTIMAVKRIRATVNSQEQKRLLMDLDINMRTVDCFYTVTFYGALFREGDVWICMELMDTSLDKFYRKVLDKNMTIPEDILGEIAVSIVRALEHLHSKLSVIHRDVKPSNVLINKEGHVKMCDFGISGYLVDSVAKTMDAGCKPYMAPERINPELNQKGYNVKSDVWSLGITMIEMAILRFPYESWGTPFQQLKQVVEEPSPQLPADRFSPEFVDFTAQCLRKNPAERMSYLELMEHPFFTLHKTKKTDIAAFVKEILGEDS
Conditions: MEK3, 10 µM; read-out: score (%).

The target in experiment [8] is T8, KinomeScan kinase panel (Homo sapiens, UniProt P29323).
T8 construct: purchased DiscoveRx (KinomeScan)
T8 sequence (P29323 19-1055): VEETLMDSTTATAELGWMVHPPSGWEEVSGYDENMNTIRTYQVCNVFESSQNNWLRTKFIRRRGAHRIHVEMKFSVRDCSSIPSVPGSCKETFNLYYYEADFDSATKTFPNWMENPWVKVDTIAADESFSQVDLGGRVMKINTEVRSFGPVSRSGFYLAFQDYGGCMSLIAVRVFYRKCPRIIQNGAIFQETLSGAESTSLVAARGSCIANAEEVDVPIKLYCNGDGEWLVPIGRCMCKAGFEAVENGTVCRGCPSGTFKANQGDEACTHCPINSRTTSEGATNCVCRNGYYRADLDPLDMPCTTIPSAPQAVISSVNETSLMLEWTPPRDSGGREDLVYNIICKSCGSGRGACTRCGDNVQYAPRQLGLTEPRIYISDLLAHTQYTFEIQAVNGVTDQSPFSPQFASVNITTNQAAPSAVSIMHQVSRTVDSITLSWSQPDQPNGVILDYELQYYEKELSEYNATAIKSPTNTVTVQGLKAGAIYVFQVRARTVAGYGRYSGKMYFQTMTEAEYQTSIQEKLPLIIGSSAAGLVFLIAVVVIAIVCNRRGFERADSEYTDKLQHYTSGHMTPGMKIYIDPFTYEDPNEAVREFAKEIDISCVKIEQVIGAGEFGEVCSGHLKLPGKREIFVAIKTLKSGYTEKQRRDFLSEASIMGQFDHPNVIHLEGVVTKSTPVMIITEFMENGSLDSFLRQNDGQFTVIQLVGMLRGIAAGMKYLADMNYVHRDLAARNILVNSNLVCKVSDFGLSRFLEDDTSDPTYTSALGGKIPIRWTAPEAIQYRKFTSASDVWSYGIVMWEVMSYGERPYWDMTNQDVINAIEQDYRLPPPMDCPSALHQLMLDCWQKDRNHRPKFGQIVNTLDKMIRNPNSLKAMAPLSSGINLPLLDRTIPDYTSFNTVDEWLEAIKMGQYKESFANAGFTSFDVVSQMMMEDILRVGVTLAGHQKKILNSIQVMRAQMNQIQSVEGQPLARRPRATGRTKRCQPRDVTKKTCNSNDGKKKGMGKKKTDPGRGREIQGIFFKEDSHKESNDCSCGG
Particulars: EPHB2, 10 µM.

The structures appear in SMILES notation. Like-named read-outs stand apart in the source and are kept apart here.

T4 sequence (Q9HBH9 whole entry): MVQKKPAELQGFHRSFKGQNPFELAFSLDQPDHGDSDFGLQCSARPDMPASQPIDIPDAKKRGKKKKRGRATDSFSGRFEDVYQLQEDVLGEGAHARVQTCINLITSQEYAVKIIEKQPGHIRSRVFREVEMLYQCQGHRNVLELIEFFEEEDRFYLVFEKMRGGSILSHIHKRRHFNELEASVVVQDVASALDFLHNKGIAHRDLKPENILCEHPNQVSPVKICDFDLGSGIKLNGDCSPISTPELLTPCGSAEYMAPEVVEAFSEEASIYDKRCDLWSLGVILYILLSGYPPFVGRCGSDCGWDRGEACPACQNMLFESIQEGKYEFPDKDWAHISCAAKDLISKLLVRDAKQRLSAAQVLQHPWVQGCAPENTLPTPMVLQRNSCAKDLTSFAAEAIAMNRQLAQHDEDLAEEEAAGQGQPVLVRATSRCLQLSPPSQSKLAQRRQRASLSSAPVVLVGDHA

As to `CCN1CCN(Cc2ccc(NC(=O)c3ccc(C)c(NC(=O)c4cncc(-c5cccs5)c4)c3)cc2C(F)(F)F)CC1` [ALW-II-41-27], the remaining binding at 10 µM on KinomeScan kinase panel [1] was more than 30%; at KinomeScan kinase panel [2] (RAF1, 10 µM) it was 1.4%; at KinomeScan kinase panel [3], more than 30%; at KinomeScan kinase panel [4] it was more than 30%; at KinomeScan kinase panel [5], 1.3%; on KinomeScan kinase panel [6], 8%. Besides, the remaining binding at 10 µM at KinomeScan kinase panel [7] is more than 30%. On KinomeScan kinase panel [8], the “score (%)” value is recorded as 0%.
With `CCN1CCN(Cc2ccc(NC(=O)c3ccc(C)c(/C=C/c4cnc5[nH]ccc5c4Cl)c3)cc2C(F)(F)F)CC1` [HG-6-63-01, (E)-3-(2-(4-chloro-1H-pyrrolo[2,3-b]pyridin-5-yl)vinyl)-N-(4-((4-ethylpiperazin-1-yl)methyl)-3-(trifluoromethyl)phenyl)-4-methylbenzamide], the remaining binding at 10 µM at KinomeScan kinase panel [1] was more than 30%; on KinomeScan kinase panel [2] (RAF1, 10 µM), 2.4%; on KinomeScan kinase panel [3], more than 30%; on KinomeScan kinase panel [4], 0.75%; at KinomeScan kinase panel [5] it was 0.7%; at KinomeScan kinase panel [6], more than 30%. The remaining binding at 10 µM on KinomeScan kinase panel [7] was more than 30%. For the same molecule, the “score (%)” value at KinomeScan kinase panel [8] is on record as 1.1%.
Consider `CCN1CCN(Cc2ccc(NC(=O)c3ccc(C)c(C#Cc4cccnc4)c3)cc2C(F)(F)F)CC1` [XMD15-44], for which the remaining binding at 10 µM on KinomeScan kinase panel [1] is more than 30%; on KinomeScan kinase panel [2] (kinase RAF1, 10 µM), 0.5%; on KinomeScan kinase panel [3] it was more than 30%; at KinomeScan kinase panel [4], 0%; on KinomeScan kinase panel [5] it was 1.8%; on KinomeScan kinase panel [6], 4.1%. Besides, on KinomeScan kinase panel [7], the remaining binding at 10 µM is more than 30%. For the same molecule, the “score (%)” value on KinomeScan kinase panel [8] is 0.1%.

For the origin of these results see publication PMC4457528, “Identification of Novel Small Molecule Inhibitors of Oncogenic RET Kinase” (PLoS ONE, 2015).
